Reference: patent US6608082B1, “Treatment of erectile dysfunction using isoquinoline compound melanocortin receptor ligands” (Lion Bioscience AG, priority 1998, dated 2003)
Where two headings read alike, the source gives them in different places.

Target: T1, MCR-1 (Homo sapiens, UniProt Q01726)
T1 construct: expressed in transfected cells; host or cells: HEK 293
Experiment: Melanocortin receptor binding assay, competition with 125I-HP 467, HEK 293 cells expressing hMCR-1
Settings: for % Disp. of 125I-HP 467 (first of duplicate) / % Disp. of 125I-HP 467 (second of duplicate): 10 μM isoquinoline compound; for % Disp. of 125I-HP 467 (first of duplicate): HEK 293 cells expressing MCR-1, duplicate 1; for % Disp. of 125I-HP 467 (second of duplicate): HEK 293 cells expressing MCR-1, duplicate 2; for % Disp. MC-1 10 μM: displacement of 125I-HP 467 at 10 μM isoquinoline compound; for IC50: read-out: MC-1 IC50
Method in brief: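 Intact-cell competition binding, 2.5 hr at 37 °C, in PBS/10% calf serum/1 mM CaCl2; hMCR-4 cells at 4×10^3 per tube, hMCR-1 cells at 2×10^4 per tube. Filtration on BSA/CaCl2-soaked GF/B, cold 50 mM Tris pH 7.4 washes, scintillation count.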

[1] = inhibition of binding of 125I-HP 467, HEK 293 cells expressing MCR-1
[2] = competition with 125I-HP 467, HEK 293 cells expressing MCR-1

T1 sequence (Q01726 whole entry): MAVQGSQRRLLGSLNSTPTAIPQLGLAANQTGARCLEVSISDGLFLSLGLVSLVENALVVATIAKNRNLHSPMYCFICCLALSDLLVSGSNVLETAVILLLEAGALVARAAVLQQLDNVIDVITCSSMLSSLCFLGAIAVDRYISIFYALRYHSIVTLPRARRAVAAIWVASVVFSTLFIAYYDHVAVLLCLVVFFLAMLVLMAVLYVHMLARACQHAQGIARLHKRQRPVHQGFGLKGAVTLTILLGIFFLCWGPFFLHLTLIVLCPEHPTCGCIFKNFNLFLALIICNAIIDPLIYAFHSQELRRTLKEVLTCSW

% Disp. MC-1 10 μM (first of duplicate) [%] | % Disp. MC-1 10 μM (second of duplicate) [%] | SMILES | other results
 |  | CNC(CN)CCCCN1Cc2ccccc2C(CNC2CCCCC2)C1c1ccc(OC)c(F)c1 (stereo not drawn) [TRG 2405-220] | % Disp. of 125I-HP 467 (first of duplicate): 67.3%; % Disp. of 125I-HP 467 (second of duplicate): 60.6%
20.1 | 48.3 | CNC(CN)CN1Cc2ccccc2C(CNC2CCCCC2)C1c1cccc2c1OCO2 (stereo not drawn) [TRG 2405-98] | 
55.3 | 52.3 | COc1ccc(C2C(CNC3CCCCC3)c3ccccc3CN2CCN)c2ccccc12 (stereo not drawn) [TRG 2405-68] | 
 |  | NCC(CCCN1Cc2ccccc2C(CNCCc2ccccc2)C1c1ccc([N+](=O)[O-])cc1)NCCc1ccccc1 (stereo not drawn) [TRG 2413-13] | IC50 [1]: 1.07 µM
 |  | CNC(CN)CCCCN1Cc2ccccc2C(CNC2CCCCC2)C1c1cccc(O)c1 (stereo not drawn) [TRG 2405-223] | % Disp. of 125I-HP 467 (first of duplicate): 33.6%; % Disp. of 125I-HP 467 (second of duplicate): 21.2%
62.2 | 51.5 | CNC(CN)CN1Cc2ccccc2C(CNC2CCCCC2)C1c1ccc(C)o1 (stereo not drawn) [TRG 2405-169] | 
 |  | CNC(CN)CN1Cc2ccccc2C(CNC2CCCCC2)C1c1ccc(S(C)(=O)=O)cc1 (stereo not drawn) [TRG 2405-177] | % Disp. of 125I-HP 467 (first of duplicate): 39%; % Disp. of 125I-HP 467 (second of duplicate): 30.7%
 |  | CCCCCNc1ccc(C2C(CNCCc3ccccc3)c3ccccc3CN2CCCCC(CN)NC)cc1 (stereo not drawn) [TRG 2412-1] | IC50 [1]: 0.38 µM
 |  | CCNc1ccc(C2C(CN)c3ccccc3CN2CCCCC(CN)NCc2ccccc2)cc1 (stereo not drawn) [TRG 2411-66] | IC50 [2]: 0.11 µM
 |  | CCCCNc1ccc(C2C(CNC3CCCCC3)c3ccccc3CN2CCCCC(CN)N2CCCC2)cc1 (stereo not drawn) [TRG 2411-89] | IC50 [2]: 0.06 µM
41.4 | 42.4 | COc1ccc(C2C(CNC3CCCCC3)c3ccccc3CN2CCN)cc1 (stereo not drawn) [TRG 2405-60] | 
 |  | CCCCOc1ccc(C2C(CNCCc3ccccc3)c3ccccc3CN2CCCC(CN)NCCc2ccccc2)cc1 (stereo not drawn) [TRG 2412-26] | IC50 [1]: 0.2 µM
 |  | CCNc1ccc(C2C(CNC3CCCCC3)c3ccccc3CN2CCCC(CN)N2CCCC2)cc1 (stereo not drawn) [TRG 2411-166] | IC50 [1]: 0.04 µM
 |  | CNC(CN)CCCCN1Cc2ccccc2C(CNC2CCCCC2)C1c1cccc([N+](=O)[O-])c1 (stereo not drawn) [TRG 2405-229] | % Disp. of 125I-HP 467 (first of duplicate): 58.6%; % Disp. of 125I-HP 467 (second of duplicate): 48.8%
36.4 | 33.4 | NCCN1Cc2ccccc2C(CNC2CCCCC2)C1c1cccc(F)c1F (stereo not drawn) [TRG 2405-9] | 
 |  | CCCCNc1ccc(C2C(CNCCc3ccccc3)c3ccccc3CN2CCCCC(CN)NCCN)cc1 (stereo not drawn) [TRG 2411-85] | IC50 [2]: 0.31 µM

% Disp. MC-1 10 μM (first of duplicate) [%] | % Disp. MC-1 10 μM (second of duplicate) [%] | SMILES | other results
52.4 | 54.3 | CNC(CN)CN1Cc2ccccc2C(CNC2CCCCC2)C1c1cc(Cl)cc(Cl)c1 (mixture of isomers) [TRG 2405-120] | 
71 | 59.6 | CNC(CN)CN1Cc2ccccc2C(CNC2CCCCC2)C1c1ccc(Oc2ccccc2)cc1 (stereo not drawn) [TRG 2405-162] | 
 |  | CCOc1ccc(C2C(CNCCc3ccccc3)c3ccccc3CN2CCCCC(CN)NCc2ccccc2)cc1 (stereo not drawn) [TRG 2412-6] | IC50 [1]: 0.59 µM
42.4 | 42.3 | NCCN1Cc2ccccc2C(CNC2CCCCC2)C1c1cnc2ccccc2c1 (stereo not drawn) [TRG 2405-52] | 
35.9 | 34.7 | NCCN1Cc2ccccc2C(CNC2CCCCC2)C1c1ncc[nH]1 (stereo not drawn) [TRG 2405-18] | 
18.2 | 37.5 | NCCN1Cc2ccccc2C(CNC2CCCCC2)C1c1cc2c3c(c1O)CCCN3CCC2 (stereo not drawn) [TRG 2405-84] | 
 |  | CNC(CN)CCCCN1Cc2ccccc2C(CNC2CCCCC2)C1c1cccc(Oc2ccc(OC)cc2)c1 (stereo not drawn) [TRG 2405-214] | % Disp. of 125I-HP 467 (first of duplicate): 87.5%; % Disp. of 125I-HP 467 (second of duplicate): 84.9%
58.4 | 59.1 | CNC(CN)CN1Cc2ccccc2C(CNC2CCCCC2)C1c1ccc([N+](=O)[O-])cc1 (mixture of isomers) [TRG 2405-161] | 
 |  | CCNc1ccc(C2C(CNCCc3ccccc3)c3ccccc3CN2CCCCC(CN)NCCN)cc1 (stereo not drawn) [TRG 2411-48] | IC50 [2]: 0.3 µM
 |  | CCCCNC(CN)CCCN1Cc2ccccc2C(CN)C1c1ccc(NCC)cc1 (stereo not drawn) [TRG 2411-177] | IC50 [1]: 0.11 µM
 |  | CNC(CN)CCCCN1Cc2ccccc2C(CNC2CCCCC2)C1c1ccc(OC)c(C)c1 (mixture of isomers) [TRG 2405-226] | % Disp. of 125I-HP 467 (first of duplicate): 79.1%; % Disp. of 125I-HP 467 (second of duplicate): 77.7%
21.9 | 22.1 | CS(=O)(=O)c1ccc(C2C(CNC3CCCCC3)c3ccccc3CN2CCN)cc1 (stereo not drawn) [TRG 2405-87] | 
44.9 | 24.1 | CNC(CN)CN1Cc2ccccc2C(CNC2CCCCC2)C1c1ccc(C)s1 (stereo not drawn) [TRG 2405-168] | 
 |  | CNC(CN)CN1Cc2ccccc2C(CNC2CCCCC2)C1c1nccs1 (stereo not drawn) [TRG 2405-180] | % Disp. of 125I-HP 467 (first of duplicate): 72%; % Disp. of 125I-HP 467 (second of duplicate): 64.6%
 |  | CCCCNc1ccc(C2C(CNC3CCCCC3)c3ccccc3CN2CCCCC(CN)NCc2ccccc2)cc1 (stereo not drawn) [TRG 2411-93] | IC50 [2]: 0.13 µM
